The term EC50 denotes the concentration needed to bring the measured effect to its halfway point. As usually defined, the AC50 is the concentration at which the activity in the assay is half-maximal.

Data set [1] concerns Streptococcus sp. 'group A'. In words: growth inhibition of control SK(-) GAS strain, dose response, counter-screen for streptokinase expression inhibitor project, luminescence, kanamycin, BacTiterGlo, confirmation (AID 1900). It counts as functional, organism-based. In general terms: A counterscreen serves to expose hits that act by an unwanted route or on another target.
The next data set addresses T1, Streptokinase A (Streptococcus pyogenes serotype M1, UniProt P10520).
T1 sequence (P10520 whole entry): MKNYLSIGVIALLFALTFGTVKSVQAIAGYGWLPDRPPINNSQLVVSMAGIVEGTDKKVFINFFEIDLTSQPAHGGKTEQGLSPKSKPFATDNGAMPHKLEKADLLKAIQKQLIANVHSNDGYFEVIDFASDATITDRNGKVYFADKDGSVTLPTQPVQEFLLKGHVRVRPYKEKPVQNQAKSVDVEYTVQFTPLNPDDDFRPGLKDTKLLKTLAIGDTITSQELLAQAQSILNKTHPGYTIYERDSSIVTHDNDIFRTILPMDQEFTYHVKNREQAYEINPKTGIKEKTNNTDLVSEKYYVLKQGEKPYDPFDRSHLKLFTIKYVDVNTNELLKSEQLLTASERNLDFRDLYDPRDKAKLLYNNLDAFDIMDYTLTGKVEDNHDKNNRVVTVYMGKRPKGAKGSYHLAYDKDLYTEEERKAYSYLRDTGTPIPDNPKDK
Nature of the data set: S. pyogenes streptokinase expression inhibitors, potency, dose response, plasminogen activation absorbance, OD405 (AID 1914).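 Further: secreted streptokinase activity via plasminogen activation per viability signal from cell pellet.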 It counts as functional, Streptococcus pyogenes M1 GAS.

Another data set deals with Streptococcus. Nature of the data set: Group A Streptococcus viability loss, dose response, counter-screen for streptokinase expression inhibitor project, luminescence, BacTiterGlo (AID 1915).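 Further: potency for reduction of bacterial viability or growth.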 It counts as functional, organism-based.
For another data set, the target named is Cytochrome P450 2D6 (Homo sapiens, UniProt P10635).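 Further: CYP2D6 member of a cytochrome P450 panel assay.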
For a further data set, the target named is Cytochrome P450 3A4 (Homo sapiens, UniProt P08684).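 Further: CYP3A4 tested as one member of a cytochrome P450 panel screen.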
The next data set addresses Cytochrome P450 2C19 (Homo sapiens, UniProt P33261). In words: Cytochrome panel assay with activity outcomes. Panel member name: p450-cyp2c19 Compounds with AC50 equal or less than 10 uM are considered active. It counts as functional.
Data set [2] can be described thus: inhibitors of intracellular T. cruzi replication, confirmation, NIH3T3 host cells, beta-gal luminescence (AID 2044).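 Further: intracellular parasites grown in NIH/3T3 mouse fibroblasts as host cells; luminescent beta-galactosidase reporter signal from transgenic T. cruzi replicating inside host cells; inhibitors lower the luminescence signal.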 It counts as functional, cell-based.
A short description of data set [3]: cytotoxicity toward NIH3T3 fibroblasts, dose response, counter-screen, cell-based, ATP luminescence, mouse fibroblasts (AID 2010).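 Further: cells exposed to compound for about 90 hours before reading.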 It counts as functional.
Data set [4] in a line: Luminescence Cell-Based Dose Response HTS to Identify Activators of Luciferase Translation or Activity in H4 […] Cells. [Related pubchem assays: 1829 (Project Summary), 1814 (Primary HTS)]. It counts as functional.
Another data set relates to H4. Nature of the data set: Luminescence Cell-Based Dose Response HTS to Identify Activators of 5'UTR Stem-Loop Driven Prion Protein mRNA Translation in H4 Neuroglioblastoma Cells. [Related pubchem assays: 1829 (Project Summary), 1814 (Primary HTS)]. It counts as functional. The note with it: Homo sapiens.

SMILES strings stand for the structures. Calls of active or inactive are those of the source.

Sequence of Cytochrome P450 2D6 (P10635 whole entry): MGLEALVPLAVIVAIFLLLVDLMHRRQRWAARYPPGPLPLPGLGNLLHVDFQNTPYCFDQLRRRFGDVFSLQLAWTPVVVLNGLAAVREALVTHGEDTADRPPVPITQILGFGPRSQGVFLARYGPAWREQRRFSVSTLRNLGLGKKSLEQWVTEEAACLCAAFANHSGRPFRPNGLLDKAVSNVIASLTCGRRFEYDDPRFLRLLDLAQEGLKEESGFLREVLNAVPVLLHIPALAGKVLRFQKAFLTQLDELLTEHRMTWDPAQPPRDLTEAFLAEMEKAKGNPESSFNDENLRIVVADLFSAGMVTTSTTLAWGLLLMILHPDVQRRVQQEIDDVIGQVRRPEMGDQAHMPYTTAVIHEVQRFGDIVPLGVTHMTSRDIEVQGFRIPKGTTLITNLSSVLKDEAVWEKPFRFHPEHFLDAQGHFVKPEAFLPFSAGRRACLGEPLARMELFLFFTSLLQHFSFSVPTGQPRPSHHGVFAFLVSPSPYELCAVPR
Sequence of Cytochrome P450 2C19 (P33261 whole entry): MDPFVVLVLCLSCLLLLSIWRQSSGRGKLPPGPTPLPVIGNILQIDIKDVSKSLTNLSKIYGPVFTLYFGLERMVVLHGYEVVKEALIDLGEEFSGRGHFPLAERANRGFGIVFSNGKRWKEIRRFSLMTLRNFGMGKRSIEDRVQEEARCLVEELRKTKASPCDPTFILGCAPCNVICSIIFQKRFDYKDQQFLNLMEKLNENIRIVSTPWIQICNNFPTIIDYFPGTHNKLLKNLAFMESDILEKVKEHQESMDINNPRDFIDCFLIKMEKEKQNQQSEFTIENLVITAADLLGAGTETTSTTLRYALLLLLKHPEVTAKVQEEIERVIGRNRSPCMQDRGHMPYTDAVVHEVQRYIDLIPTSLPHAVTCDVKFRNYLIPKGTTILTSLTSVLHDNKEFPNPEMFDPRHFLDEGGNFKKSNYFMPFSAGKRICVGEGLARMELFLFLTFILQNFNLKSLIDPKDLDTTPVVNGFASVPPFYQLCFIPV
Sequence of Cytochrome P450 3A4 (P08684 whole entry): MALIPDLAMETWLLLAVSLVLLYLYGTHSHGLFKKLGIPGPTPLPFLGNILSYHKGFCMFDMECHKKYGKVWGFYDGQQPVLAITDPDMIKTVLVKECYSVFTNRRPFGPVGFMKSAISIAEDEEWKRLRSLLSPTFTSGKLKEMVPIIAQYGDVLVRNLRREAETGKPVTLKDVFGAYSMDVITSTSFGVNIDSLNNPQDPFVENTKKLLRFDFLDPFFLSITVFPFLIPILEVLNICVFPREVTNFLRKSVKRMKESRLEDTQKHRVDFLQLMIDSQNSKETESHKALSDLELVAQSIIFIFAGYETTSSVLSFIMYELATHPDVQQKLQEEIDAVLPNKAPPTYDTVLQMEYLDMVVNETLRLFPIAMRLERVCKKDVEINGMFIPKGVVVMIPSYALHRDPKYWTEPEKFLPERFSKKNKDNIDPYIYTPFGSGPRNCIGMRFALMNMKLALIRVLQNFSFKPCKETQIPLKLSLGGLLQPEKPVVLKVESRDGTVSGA

With `CC(C)N1CCc2c(sc(NC(=O)CCS(=O)(=O)c3ccccc3)c2C#N)C1`, the EC50 (in [1]; at Streptokinase A; in the data set on Streptococcus) was > 150 µM (not active) throughout.

Take `CNC(=O)c1sc(SC)cc1-c1ccc(Cl)cc1`: the AC50 on Cytochrome P450 2D6 was 25.1 µM (inconclusive).

Regarding `COc1ccc(-n2c(=O)c(C)nc3cnc(N(C)C)nc32)cc1`, the AC50 on Cytochrome P450 3A4 was 20 µM (inconclusive).

`CCSC(=N)Nc1ccc(C(F)(F)F)cc1`: the AC50 is 20 µM (inconclusive) at Cytochrome P450 2C19 (read-out: AC50) and 39.8 µM (inconclusive) on Cytochrome P450 3A4.

Take `CN(Cc1ccccc1)C(=O)C1CCCN(Cc2cccc(Cl)c2)C1` (configuration not stated): the EC50 was 0.11 µM (active) in data set [2] and > 60 µM (not active) in data set [3].

Regarding `COCCNc1nc(-c2c(C)noc2C)nc2ccccc12`, at Cytochrome P450 3A4, the AC50 was 15.8 µM (inconclusive).

Regarding `COc1cc([N+](=O)[O-])c(N2CCOCC2)c([N+](=O)[O-])c1OC`, the EC50 in data set [2] was 7.53 µM (active); in data set [3], > 60 µM (not active).

As for `O=[N+]([O-])c1cccc(-c2nc(-c3ccccc3)c(-c3cccs3)[nH]2)c1`, the AC50 at Cytochrome P450 2D6 is 4.47 µM (inconclusive).

As for `CCC(C)C(=O)N1CCCC(c2nc(-c3cccs3)no2)C1` (configuration not stated), the EC50 in [4] was > 120 µM (not active); in the data set with H4, 71.6 µM (active).

In the case of `C=C(C)CNC(=S)NNC(=O)CCn1c2ccc(Cl)cc2c2cc(Cl)ccc21`, the EC50 on Streptokinase A is > 150 µM (not active).

Consider `COc1ccc(CN(C)S(=O)(=O)c2ccc3c(c2)OCCO3)cc1`, for which the EC50 (in data set [1]; at Streptokinase A; in the data set with Streptococcus) was > 150 µM (not active) in each case.

As to `OC(COCC1COc2ccccc2O1)CN1CCc2ccccc2C1` (configuration not stated), the AC50 on Cytochrome P450 3A4 is 17.8 µM (inconclusive).

Turning to `COc1ccc(/C=C2\Sc3ccc(C(=O)N4CCCC4)cc3N(C)C2=O)cc1OC`, the EC50 in [1] is 0.555 µM (active); on Streptokinase A, > 150 µM (not active); in the data set with Streptococcus, 8.27 µM (active).

Consider `COc1ccc(C(=O)NCC(c2ccc(F)cc2)N2CCOCC2)cc1S(=O)(=O)N1CCCC1` (configuration not stated), for which, at Cytochrome P450 2D6, the AC50 is 15.8 µM (inconclusive).

`CNc1ncnc2ccc(-c3ccccc3CN(C)C)cc12`: the AC50 at Cytochrome P450 2C19 (read-out: AC50) is 20 µM (inconclusive).

For the compound `Cn1c(=O)c(C(=O)NNC(=O)c2ccccc2Br)c(O)c2ccccc21`, the EC50 in data set [1] is 4.72 µM (active); on Streptokinase A it was > 150 µM (not active); in the data set on Streptococcus, 18.7 µM (active).

On to `COCCn1c(=O)c(-c2cccs2)nc2cnc(Oc3ccc(OC)cc3)nc21`, for which the AC50 on Cytochrome P450 2C19 (read-out: AC50) is 15.8 µM (inconclusive).

In the case of `O=S(=O)(Nc1ccc(N=Nc2ccc(O)c3ccccc23)cc1)c1ccccc1`, the EC50 in data set [1] was 7.71 µM (active); at Streptokinase A, 18.7 µM (active); with Streptococcus it was 41.5 µM (active).

Regarding `CCc1ccc(Oc2nc([N+](=O)[O-])nn2C)cc1`, the EC50 in [2] is 0.438 µM (active); in data set [3] it was > 30 µM (not active).

`CCCCN1C(=O)NC(=O)/C(=C(\C)Nc2ccc(OCC)cc2)C1=O`: the EC50 is 8.66 µM (active) in data set [1], > 150 µM (not active) on Streptokinase A and 21.5 µM (active) in the data set on Streptococcus.

As to `Cc1sc2c(c1C)c(=O)n(-c1ccccc1)c1nnc(C)n21`, on Cytochrome P450 2C19 (read-out: AC50), the AC50 was 8.91 µM (inconclusive).

`CC(C)C[C@@H](N)C(=O)Nc1ccc2ccccc2c1`: the AC50 on Cytochrome P450 2C19 (read-out: AC50) is 2.51 µM (inconclusive); at Cytochrome P450 2D6, 3.16 µM (inconclusive); on Cytochrome P450 3A4 it was 2.51 µM (inconclusive).

With `CCOC(=O)CC(NC(=O)c1cccs1)c1ccc(OCC)cc1` (configuration not stated), at Cytochrome P450 2D6, the AC50 was 14.1 µM (inconclusive).

Take `c1ccc(COc2ccc(-c3csnn3)cc2)cc1`: the EC50 in data set [4] was 0.11 µM (active); in the data set with H4, 1.64 µM (active).

`Cc1ccc(C(=N)NOC(=O)CSc2ccccc2)cc1`: the half-maximal effective concentration (EC50) in data set [4] is 0.514 µM (active).

In the case of `Cc1ccc(C(=O)N(C)c2ccc(OCC(=O)N3c4ccc(C)cc4C4CN(C)CCC43)cc2)cc1` (configuration not stated), the EC50 is 0.527 µM (active) in data set [2] and > 60 µM (not active) in [3].

In the case of `CN(C)/C=N/c1cnc(C(=O)c2ccc(Cl)cc2)n1C`, in the data set on H4, the EC50 is 0.52 µM (active).

As for `c1ccc(CN2CCN(c3nc4ccccc4c4ccccc34)CC2)cc1`, the EC50 is 15.9 µM (active) in data set [1], 14.9 µM (active) on Streptokinase A and > 150 µM (not active) in the data set on Streptococcus.

On to `CC(=O)Nc1ccc(S(=O)(=O)N2CCC(N(C)CCC(C)C)CC2)cc1`, for which the half-maximal activity concentration (AC50) on Cytochrome P450 2C19 (read-out: AC50) is 25.1 µM (inconclusive).

Regarding `COc1ccc(C(CNC(=O)c2cccc(S(=O)(=O)Nc3ccccc3Cl)c2)N2CCOCC2)cc1` (configuration not stated), the EC50 is > 150 µM (not active) on Streptokinase A and 104 µM (active) in the data set on Streptococcus.

Take `Oc1ccc(Cc2cc(Cl)cc(Cl)c2O)cc1Cl`: the AC50 was 7.94 µM (inconclusive) on Cytochrome P450 2D6 and 3.98 µM (inconclusive) on Cytochrome P450 3A4.

Take `O=c1c(-c2ccc(F)cc2)nc2cnc(N3CCNCC3)nc2n1C1CC1`: the AC50 at Cytochrome P450 2C19 (read-out: AC50) is 39.8 µM (inconclusive).

On to `C[C@H]1CC[C@@]2(NC1)O[C@@H]1C[C@H]3[C@@H]4CC[C@@H]5C[C@@H](O)CC[C@@]5(C)[C@@H]4CC[C@]3(C)[C@@H]1[C@@H]2C`, for which the AC50 entry on Cytochrome P450 2C19 was “inconclusive”.

Consider `COc1ccccc1CNc1ncncc1-c1ccc(C(=O)N(C)C)cc1`, for which the AC50 on Cytochrome P450 2D6 is 39.8 µM (inconclusive).

As for `O=C(CSc1cccc[n+]1[O-])c1cc2ccccc2o1`, the EC50 in data set [2] was 11.3 µM (active); in [3] it was > 60 µM (not active).

For `O=c1c(-c2ccc(Cl)cc2)nc2cnc(N3CCNCC3)nc2n1Cc1cccs1`, at Cytochrome P450 2C19 (read-out: AC50), the AC50 is 25.1 µM (inconclusive).

On to `COC(=O)Cc1c[nH]c2cccc(OCC(O)CN(Cc3ccc([N+](=O)[O-])cc3)C(C)(C)C)c12` (configuration not stated), for which the EC50 is 2.83 µM (active) in data set [2] and > 60 µM (not active) in data set [3].

As to `Cc1cc2nc(CCN(Cc3cccnc3)C(S)=Nc3ccc(F)cc3)[nH]c2cc1C`, the EC50 in data set [2] is 0.844 µM (active); in [3] it was > 30 µM (not active).

Take `c1ccc(COc2ccccc2CNCc2cccnc2)cc1`: the results for the EC50 in data set [2] and in data set [3] were 8.11 µM (active) and > 60 µM (not active), respectively.

On to `OC(COCCC12CC3CC(CC(C3)C1)C2)CN1CCCCC1` (configuration not stated), for which the EC50 in [2] was 0.228 µM (active); in [3] it was > 60 µM (not active).

On to `CCOC(=O)C1CCCN(c2ncnc3c2cnn3-c2cccc(C)c2)C1` (configuration not stated), for which the AC50 is 20 µM (inconclusive) on Cytochrome P450 2C19 (read-out: AC50) and 28.2 µM (inconclusive) on Cytochrome P450 3A4.

Regarding `CC(CCc1ccccc1)N1CCN(Cc2ccccc2)CC1` (configuration not stated), the EC50 in data set [2] was 0.101 µM (active); in [3] it was 10.2 µM (active).

Turning to `COC(=O)Cc1c(OC)ccn(CCc2c[nH]c3ccccc23)c1=O`, the EC50 with H4 is reported as > 120 µM (not active).

In the case of `CCOC(=O)c1c2c(n3ccccc13)C(=O)c1ccccc1C2=O`, the AC50 on Cytochrome P450 3A4 is 3.16 µM (inconclusive).

Consider `Cc1ccc(-c2onc3ccc(C4OCCO4)cc23)cc1`, for which the EC50 in [4] was 28.4 µM (active); in the data set with H4 it was 25 µM (active).

With `Cc1ccc(CN(C)CCc2ccccn2)cc1`, the EC50 in data set [2] is 0.309 µM (active); in data set [3], > 60 µM (not active).

With `Cc1[nH]c2ccccc2c1C(=O)CSc1nc2ccccc2c(=O)n1CCCN1CCOCC1`, the EC50 (in data set [4]; in the data set on H4) was > 120 µM (not active) in each case.

In the case of `O=C(CCc1nnc(CCCCc2ccccc2)o1)NCCc1cccnc1`, the EC50 in [2] is 2.27 µM (active); in data set [3], > 60 µM (not active).

With `CCN1CCN(c2ccc(S(=O)(=O)N3CCOCC3)cc2NC(=O)c2ccc(Cl)s2)CC1`, the EC50 in data set [2] was 0.588 µM (active); in data set [3] it was > 30 µM (not active).

As for `CN(C)c1ccc(-c2cncnc2NCc2ccccc2)cc1`, the AC50 at Cytochrome P450 2D6 is 39.8 µM (inconclusive).

Consider `O=S(=O)(Cc1cc(Sc2ccc(Cl)cc2)nc(-c2ccccc2)n1)c1ccccc1`, for which the EC50 in data set [2] is 2.93 µM (active); in [3] it was > 60 µM (not active).

For `COc1ccc(-c2ccc(C(=S)N3CCN(C(C)=O)CC3)o2)cc1`, the AC50 at Cytochrome P450 2D6 was 28.2 µM (inconclusive).

Consider `COC(=O)C1CCN(CC(=O)Nc2cc(Cl)ccc2OC)CC1`, for which the EC50 was 4.18 µM (active) in data set [2] and > 30 µM (not active) in data set [3].

Source of the values: ChEMBL document CHEMBL1201862, “PubChem BioAssay data set” (2004).
